We go through three compounds from US20250255893A1, “ISOPROPYL-D-GLUCOPYRANOSIDE DERIVATIVE, AND PREPARATION METHOD THEREFOR AND USE THEREOF” (NATIONAL TSING HUA UNIVERSITY, priority 2021, published 2025).

Assay [1] deals with hippocampal neurons. Kind of assay: In vitro hippocampal neuron repair (scratch injury, gap closure rate). The assay is classed as cell-based, rat. The following applies: 72 hours. The protocol: (§1) The experimental procedure is depicted in FIG. 2. Removed the brain of E18 rat embryos and dissected into cortex and hippocampus. Subsequently, the cortex and hippocampus were separated into cortical neurons and hippocampal neurons, respectively. Then, seeded hippocampal neurons on 48-well plates. The first day that neurons are cultured in vitro is defined as day in vitro 0 (DIV0). On DIV2, Cytosine beta-D-arabinoside (AraC) was added to neurons to inhibit the proliferation of glial cells. On DIV8, neurons were injured using pipette tips (p10 tips) and 9.674 nM to 967.4 μM Ampelopsisionoside was added. 0.1% DMSO served as the solvent control group, and the results in the figures were standardized against the 0.1% DMSO group. After 72 hours, immunostaining was performed. TUJ1 antibody was used to label neuronal cells to observe the regrowth of neurites. Images were taken using Observer Z1 microscope.
(§2) As depicted in FIG. 3, the degree of neuronal axon regeneration was quantified using the gap closure rate. White dashed lines indicate the borders of injury gap, the central black area represents the region scratched by the tip of a pipette tips. The newly regenerated neurites grow from the white dashed lines toward the center of the gap. To quantify the results, we measured the lengths of gap (Lg) and distance between regenerated neurites (Ln) every 50 m. After unbiasedly drawing ten lines of equal distance, the average distance between neurites is taken: Length of gap between regenerated neurons (Ln). Gap closure rate is calculated using the formula: (Lg−Ln)/Lg. Scale bar=100 m. Images were taken using Observer Z1 microscope.
Removed the brain of E18 rat embryos and dissected into cortex and hippocampus. Subsequently, the cortex and hippocampus were separated into cortical neurons and hippocampal neurons, respectively. Then, seeded hippocampal neurons on 48-well plates. The first day that neurons are cultured in vitro is defined as day in vitro 0 (DIV0). On DIV2, Cytosine beta-D-arabinoside (AraC) was added to neurons to inhibit the proliferation of glial cells. […]

For assay [2], the system named is cortical neurons. Kind of assay: In vitro cortical neuron repair (scratch injury, gap closure rate). Format: cell-based, rat. The note with it: 72 hours.
Text: as §2
as §1, with “Removed” for “The experimental procedure is depicted in FIG. 2. Removed”, “seeded cortical” for “seeded hippocampal”, “to 96.74” for “to 967.4”, “neurites. Scale bar=100 m.” for “neurites.”
Removed the brain of E18 rat embryos and dissected into cortex and hippocampus. Subsequently, the cortex and hippocampus were separated into cortical neurons and hippocampal neurons, respectively. Then, seeded cortical neurons on 48-well plates. The first day that neurons are cultured in vitro is defined as day in vitro 0 (DIV0). On DIV2, Cytosine beta-D-arabinoside (AraC) was added to neurons to inhibit the proliferation of glial cells. […]

Assay [3] relates to injured brain sections. Kind of assay: Ex vivo 3D brain slice culture, neurite outgrowth after scalpel injury. Format: cell-based. The note with it: 350 μm rat embryo brain sections, added every day, 96 hours, vs ddH2O. The protocol: The experimental procedure is depicted in FIG. 10. Took out the brain of rat embryos and embedded in low-melting agarose. The brains were sectioned using Leica microtome VT100. The tissue sections were collected with 350 μm thick and injured using a scalpel. ddH2O or Ampelopsisionside was added to injured brain sections every day. After 96 hours, immunostaining was performed. TUJ1 antibody was used to label neuron cells. GFAP antibody was used to label glial cells. DAPI was used to label nucleus. Scale bar=100 m. Images were taken using Zeiss LSM800 confocal microscope.
The experimental procedure is depicted in FIG. 10. Took out the brain of rat embryos and embedded in low-melting agarose. The brains were sectioned using Leica microtome VT100. The tissue sections were collected with 350 μm thick and injured using a scalpel. ddH2O or Byzantionoside B was added to injured brain sections every day. After 96 hours, immunostaining was performed. TUJ1 antibody was used to label neuron cells. GFAP antibody was used to label glial cells. DAPI was used to label nucleus. Scale bar=100 m. Images were taken using Zeiss LSM800 confocal microscope.
The experimental procedure is depicted in FIG. 10. Took out the brain of rat embryos and embedded in low-melting agarose. The brains were sectioned using Leica microtome VT100. The tissue sections were collected with 350 μm thick and injured using a scalpel. ddH2O or Roseoside was added to injured brain sections every day. After 96 hours, immunostaining was performed. TUJ1 antibody was used to label neuron cells. GFAP antibody was used to label glial cells. DAPI was used to label nucleus. Scale bar=100 μm. Images were taken using Zeiss LSM800 confocal microscope.

In assay [4] the test system is retinal explants. Kind of assay: Ex vivo retinal explant neuronal repair. Format: cell-based, C57BL/6 mice. The note with it: five days, vs ddH2O. Here is the method: Retinal explants were obtained from C57BL/6 mice at postnatal day 8. Following the sacrifice of mice, the eyes were enucleated, and the eyeballs were dissected using forceps and microscissors to separate the retina and remove the vitreous. Subsequently, the dissected retinas were quartered and trimmed along the edges of the tissue using microscissors. Each quarter was cultured on an 18 mm round coverslip and placed in a 12-well plate inside a CO2 incubator at 35° C. for five days. The culture medium was replaced daily with fresh medium containing either 13.5 µM or 135 µM Byzantionoside B. On the fifth day of culture, the retinal tissues were fixed with a mixture of 0.1% glutaraldehyde solution and 4% paraformaldehyde at room temperature for one hour. Immunostaining was performed using primary antibodies against the axonal marker beta-III-tubulin (TUJ1) and DAPI to label neurons and cell nuclei, respectively. Images were acquired using a super-resolution upright confocal microscope (LSM-800, Carl Zeiss). […] The ratio of neuronal fiber area to tissue boundary perimeter was then calculated to determine the unit perimeter neuronal fiber length.
Retinal explants were obtained from C57BL/6 mice at postnatal day 8. […] The ratio of neuronal fiber area to tissue boundary perimeter was then calculated to determine the unit perimeter neuronal fiber length.

In the case of `C[C@H](/C=C/[C@@]1(O)[C@H](C)CC(=O)CC1(C)C)O[C@@H]1O[C@H](CO)[C@@H](O)[C@H](O)[C@H]1O` [Ampelopsisionoside], the “neurite regrowth after injury (gap closure rate)” value (“neurite regrowth after injury” for short) in assay [1] (9.674 nM to 967.4 μM, vs 0.1% DMSO) was “promotes neurite regrowth after injury”. Also, the “dendritic outgrowth (gap closure rate)” value in assay [2] (9.674 nM to 96.74 μM, vs 0.1% DMSO) is “effectively promotes dendritic outgrowth”. Also, the “neurite outgrowth from injury site” value in assay [3] is “promotes neurite outgrowth”.

On to `CC1=CC(=O)CC(C)(C)[C@@]1(O)/C=C/[C@@H](C)O[C@@H]1O[C@H](CO)[C@@H](O)[C@H](O)[C@H]1O` [Roseoside], for which, in assay [1] (0.013 M to 1294 μM, vs ddH2O), the “neurite regrowth after injury” value is given as “promotes neurite regrowth after injury”. For the same compound, the “dendritic outgrowth (gap closure rate)” value in assay [2] (1.29 M to 25.88 M, vs ddH2O) is “effectively promotes dendritic outgrowth”. Also, in assay [3], the “neurite outgrowth from injury site” value is listed as “promotes neurite outgrowth”. Also, the “recovery of injured retinal neurons (unit perimeter neuronal fiber length)” value in assay [4] (13 μM or 130 μM) is “significant recovery of injured retinal neurons”.

With `CC1=CC(=O)CC(C)(C)[C@H]1CC[C@@H](C)O[C@@H]1O[C@H](CO)[C@@H](O)[C@H](O)[C@H]1O` [Byzantionoside B], the “neurite regrowth after injury” value in assay [1] (0.13 M to 1342 μM, vs ddH2O) is listed as “promotes neurite regrowth after injury”. Also, the “neurite outgrowth (gap closure rate)” value in assay [2] (1.34 M to 26.84 M, vs ddH2O) was “effectively promotes neurite outgrowth”. Also, the “neurite outgrowth from injury site” value in assay [3] is reported as “promotes neurite outgrowth”. In addition, the “recovery of injured retinal neurons (unit perimeter neuronal fiber length)” value in assay [4] (13.5 M or […]) is “significant recovery of injured retinal neurons”.
